# According to article PMC8945229, “Development and Biological Characterization of a Novel Selective TrkA Agonist with Neuroprotective Properties against Amyloid Toxicity” (Biomedicines, 2022):
# Columns and labels:
# [1] = test system: Akt; test: Akt phosphorylation in PC12 cells (Western blot); type: cell-based; parameters: unit not given here; settings: 500 nM, 30′
# Description: For immunoprecipitation experiments PC12 or HEK293T, cells were used when at 70–80% confluent. Cells were starved of serum for 4 h and subsequently treated with 100 ng/mL NGF or 500 nM of compound ENT-A013 for 30′. Cells were then lysed in Pierce™ IP Lysis Buffer (87788, Thermo Fischer Scientific, Waltham, MA, USA) containing proteases (539138, Calbiochem, Darmstadt, Germany) and phosphatase inhibitors (524629, Calbiochem, Darmstadt, Germany). Lysates were then immunoprecipitated overnight at 4 °C with TrkA antibody (1:100, 06-574, Sigma-Aldrich, St. Louis, MO, USA) (Table S1) or p75^NTR antibody (1:100, ab6172, Abcam plc., Cambridge, UK) followed by 4 h incubation with protein G-plus agarose beads (sc-2002, Santa Cruz Biotechnology, Inc., Dallas, TX, USA). Beads were then collected, washed 3X with lysis buffer, resuspended in SDS loading buffer and subjected to Western blot against phosphorylated Tyrosine (1:1000, BAM1676, R&D Systems, Inc., Minneapolis, MN, USA) or Traf6 antibody (1:2000, ab33915, Abcam, plc., Cambridge, UK). […]
# [2] = target: T1, TrkB (Homo sapiens, UniProt Q16620); test: TrkB phosphorylation in NIH-3T3 cells stably transfected with TrkB; type: cell-based; settings: 500 nM, 30′
# T1 construct: expressed in transfected cells
# Description: PC12 and HEK293T cells were obtained from LGC Promochem GmbH (Teddington, UK) and cultured under the conditions specified by the manufacturer. NIH3T3 cells were stably transfected with human TrkB plasmid. PC12 cells were grown in DMEM medium (11965084, Gibco, Grand Island, NY, USA) containing 10% Horse Serum (16050122, Gibco, Grand Island, NY, USA), 5% Fetal Bovine Serum (10270106, Gibco, Grand Island, NY, USA), 100 units/mL Penicillin and 0.1 mg/mL Streptomycin (15140122, Gibco, Grand Island, NY, USA) at 5% CO2 and 37 °C. Cells were used between passages 5–20. HEK293T and NIH3T3 cells were grown in the same medium as PC12 cells supplemented with 10% Fetal Bovine Serum and lacking Horse Serum. For transient transfection of HEK293T cells, lipofectamine was used and cells were transfected with human p75^NTR and Traf6 plasmids. To determine the intracellular activity of endogenous secretases, we tagged (tGFP) a truncated mutant (Tm) of APP containing the original amino acids sequence from M516 to N773. This Tm conserves the secretases cleavage sites, clathrin binding site, tau protein binding site, collagen binding site and some glycosylation sites critical for protein localization and intracellular trafficking. The cDNA of the TmAPP gene was amplified by PCR and subcloned into pturbo-GFP vector. […]
# [3] = test system: CYP1A2, CYP2A6, CYP2B6, CYP2C9, CYP2C19, CYP2D6 and CYP3A4; test: CYP450 catalytic and metabolic activity, seven isoforms; type: in vitro ADME, human; settings: 1 μM
# Description: Baculosomes® expressing CYP1A2, CYP2A6, CYP2B6, CYP2C9, CYP2C19, CYP2D6 and CYP3A4 human CYP450 isoenzymes were purchased from Thermo Fisher Scientific (Waltham, MA, USA). All reagents were handled and prepared according to the manufacturer’s protocol. ENT-A013 was tested at 1 μM. Enzymatic activity in the presence of ΕΝΤ-A013 was assessed based on the kinetic model for CYP1A2, CYP2A6, CYP2B6, CYP2C9, CYP2C19, CYP2D6 and CYP3A4 isoforms. Reactions took place in triplicates at 20 °C. Glucose-6-phosphate at 333 mM and glucose-6-phosphate-dehydrogenase at 30 U/mL in 100 mM potassium phosphate, pH 8.0 (regeneration system) converted NADP^+ (10 mM in 100 mM potassium phosphate, pH 8.0) into NADPH to initiate the CYP450 reaction. Upon the addition of the fluorescent substrate, immediately (<2 min), the fluorescence signal was monitored over time at suitable excitation and emission wavelengths by Lionheart FX (BioTek, Winooski, VT, USA) (Table S2). CYP450 inhibition (%) was determined based on the reaction rates (fluorescence intensity changes per unit time). A total of n = 60 measurements per minute were acquired for a total time of t = 60 min. % Inhibition= (1 − X/A) × 100%(1) where: X is the rate observed in the presence of test-compound; A is the rate observed in the presence of negative (solvent, DMSO) control.
# T1 sequence (Q16620 32-822): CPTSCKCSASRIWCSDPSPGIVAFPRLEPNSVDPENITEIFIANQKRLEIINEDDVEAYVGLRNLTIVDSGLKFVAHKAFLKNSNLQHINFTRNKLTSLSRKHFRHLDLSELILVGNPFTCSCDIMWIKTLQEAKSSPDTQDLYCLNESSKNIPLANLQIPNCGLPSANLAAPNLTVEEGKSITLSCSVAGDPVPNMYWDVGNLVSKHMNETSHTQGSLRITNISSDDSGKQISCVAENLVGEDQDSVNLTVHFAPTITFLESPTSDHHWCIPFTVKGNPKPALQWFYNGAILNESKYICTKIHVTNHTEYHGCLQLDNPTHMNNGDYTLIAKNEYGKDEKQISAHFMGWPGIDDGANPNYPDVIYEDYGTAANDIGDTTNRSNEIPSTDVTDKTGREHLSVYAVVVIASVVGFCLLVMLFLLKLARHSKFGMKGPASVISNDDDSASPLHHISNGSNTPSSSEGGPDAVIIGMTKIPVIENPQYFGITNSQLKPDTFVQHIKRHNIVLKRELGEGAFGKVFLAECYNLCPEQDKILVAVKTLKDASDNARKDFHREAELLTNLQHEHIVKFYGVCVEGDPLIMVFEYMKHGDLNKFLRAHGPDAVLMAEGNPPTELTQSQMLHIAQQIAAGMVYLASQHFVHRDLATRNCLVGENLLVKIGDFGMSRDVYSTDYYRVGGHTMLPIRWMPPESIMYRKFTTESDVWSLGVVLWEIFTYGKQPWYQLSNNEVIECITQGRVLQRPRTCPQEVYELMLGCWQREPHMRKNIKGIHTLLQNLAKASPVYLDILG
smiles,measurement,setting,value
"CC12CCC(O)CC1=CCC1C2CCC2(C)C1CCC21CC1C=CBr [ENT-A013, (2′R,3S,17S)-2′-(2-Bromovinyl)-5-Androstene-17,1′-Cyclopropan-3-ol]",Akt phosphorylation,[1],3.8 ± 1.15
same,TrkB phosphorylation (in words),[2],did not induce phosphorylation
same,enzyme (catalytic) activity of the seven major CYP450s,[3]; relative fluorescence of product,did not decrease the enzyme (catalytic) activity
same,"CYP450 (%) metabolic activity, residual % of time zero (in words)",[3]; t = 0 to t = 60 min,overall metabolically stable
